In US8691186B2, “Imaging infection with compounds that bind to thymidine kinase” (priority 2004, dated 2014):
≈ marks a conversion by molar mass, not a printed value.

How the values were obtained:
Escherichia coli = assay: In vitro bacterial susceptibility assay, wild type E. coli; format: cell-based; settings: for Susceptibility of E. coli to nucleoside analog (growth inhibition): in vitro, Luria broth, 37° C.
Method: (§1) 1-(2′-deoxy-2′-fluoro-β-D-arabinofuranosyl)-5-iodouracil (FIAU) (Moravek catalog no. M251) and penciclovir (Moravek catalog no. M972) were purchased from Moravek Biochemicals (Brea, Calif.). Zidovudine was purchased from Glaxo Wellcome. Bacterial susceptibility tests were performed in 96-well microtiter plates (VWR Scientific), with serial dilutions of drug placed in each well. Each well was inoculated with Escherichia coli (Yale University E. coli Genetic Stock Center, New Haven, Conn.) and grown in Luria broth (Invitrogen) at 37° C. E. coli TK mutants were generated by selecting for spontaneously resistant colonies on plates containing 1 mg/ml Zidovudine. Ten resistant clones were selected and screened for deletions in the TK gene by using the PCR primers SZ46-eTKKO20F and (5′-[…]-3′ (SEQ ID NO: 1)) SZ49-eTK-K0789R (5′-ATCAAGACGCAGCACCATG-3′ (SEQ ID NO: 2)). […] As a control for integrity of the DNA of this clone, its 16S rRNA gene was amplified by using the primers SZ-16S-Ecoli993F (5′-ACATCCACGGAAGTTT-TCAG-3′ (SEQ ID NO: 3)) SZ 16S-Ecoli454R (5′-CCGAAGGTTAAGC-TACCTAC-3′ (SEQ ID NO: 4)).
To determine whether endogenous bacterial TK could provide a reporter enzyme suitable for imaging, the susceptibility of E. coli to a variety of common nucleoside analogs was examined in vitro.
(§2) In vitro susceptibility tests were performed on C. novyi-NT using 96 well plates containing two-fold serial dilutions of FIAU (Moravek Biochemicals) in reinforced clostridial media (Difco). Approximately, 10^5-10^6 bacteria were inoculated into each well and incubated at 37 C. overnight in an anaerobic chamber. C. novyi-NT growth was measured using an OD600. In order to test the mechanism of action of FIAU on bacteria, the thymidine kinase (TK) gene in E. coli was knocked out. An in vitro FIAU susceptibility test comparing wild type E. coli with the mutant TK deficient E. coli was preformed. 96 well plates were used containing two-fold serial dilutions of FIAU in Lauria Broth. Approximately, 10^5-10^6 bacteria were inoculated into each well and incubated at 37 C. overnight. Growth was measured using OD600.

C. novyi-NT [1] = assay: In vitro susceptibility test on C. novyi-NT; format: cell-based, Clostridium novyi-NT; settings: reinforced clostridial media, overnight, anaerobic, OD600
Method: as §2

TK deficient E. coli = assay: In vitro bacterial susceptibility assay, TK-deleted E. coli; format: cell-based, Escherichia coli; settings: for Susceptibility of TK gene-deleted E. coli derivative: in vitro
Method: as §1
To determine whether the TK gene was responsible for this sensitivity, a derivative of E. coli in which the TK gene was deleted was created. […] Because FIAU can be radiolabeled by using commercially available reagents and has been successfully used to image tumor cells transfected with HSV1-TK, it was elected to test its potential for imaging bacterial infections.
as §2, with “96 well plates were used containing two-fold serial dilutions of FIAU in Lauria Broth. Approximately, 10^5-10^6 bacteria were inoculated into each well and incubated at 37 C. overnight.” left out

C. novyi-NT [2] = assay: Imaging of intratumoral C. novyi-NT infection in tumor-bearing mice; format: in vivo, Clostridium novyi-NT
Method: All animal experiments were overseen and approved by the Animal Welfare Committee of The John Hopkins University and were in compliance with university standards. Six- to 8-wk-old athymic nu/nu or BALB/c mice, purchased from Harlan Bioproducts for Science (Indianapolis), were used for tumor implantation studies. Five million cells were injected s.c. into the right flank of each mouse. Tumor volume was calculated as length×width^2×0.5, and mice were treated with Clostridium novyi-NT spores when tumors occupied ˜250 mm^3. C. novyi-NT spores were prepared as described (15), and mice were i.v. injected with 300 million spores suspended in 250 μl of PBS.
(§3) Mice were injected with 225 μCi of [^125I]FIAU via the tail vein and imaged at various time points thereafter. Before imaging, mice were anesthetized via s.c. administration of acepromazine and ketamine. Each scan took min with a dedicated small-animal single-photon emission computed tomography (SPECT)/computed tomography (CT) camera (Gamma Medica X-SPECT, Northridge, Calif.) in planar acquisition mode using a low-energy high-resolution (LEHR) parallel-hole collimator. For each bacterial strain used, at least two mice were injected and imaged. To obtain SPECT/CT images, animals were first scanned for ≈40 min by using a small-animal SPECT camera in tomographic acquisition mode, using two LEHR parallel-hole collimators. The animals then underwent CT by using appropriate fiducial markers that allowed coregistration.
BALB/c mice bearing CT-26 mouse colon tumors were treated with a single i.v. injection of C. novyi-NT and [^125I]FIAU was administered 24 h later.
For in vivo studies, FIAU was labeled with 1-125. The optimal time course for imaging mice harboring HCTZ 16 colon cancer xenografts was determined empirically by varying the time of injection of FIAU in relation to C. novyi-NT. Biodistribution studies were performed in 12 athymic nu/nu mice harboring HCTZ 16 xenografts ˜350-400 mm^3, six of which were injected with 300 million C. novyi-NT spores 24 hrs prior to 2 uCi of 1-125 FIAU. Eight hours after I-125 FIAU injection, all twelve mice were euthanized by cervical dislocation and the brain, lungs, heart, blood, small and large intestine, liver, kidneys, muscle and tumor were harvested and weighed. The activity in each tissue was measured using an automated gamma counter (LKB Wallace 1282 Compugamma CS Universal Gamma Counter). The percent-injected dose per gram of tissue (% ID/g) was calculated by comparison with samples of a standard dilution of the initial dose. […]

[3] = tested on: TK-deficient (TK−) strain of E. coli; assay: In vivo imaging of TK- E. coli thigh infection in mice; set-up: species or system Escherichia coli; settings: same mice, opposite thighs
Method: (§4) E. coli strains or clinical isolates from the Johns Hopkins Hospital Microbiology Laboratory, including Staphylococcus aureus 29213 and 25923, Streptococcus pneumoniae 49619, Enterococcus faecalis 49532, and Staphylococcus epidermidis F362, were used to create experimental infections. Bacteria were grown to log phase in Mueller Hinton Broth with Cations (Remel, Lenexa, Kans.) or BBL Todd Hewitt Broth (Becton Dickinson). Localized infections were generated by injecting 1×10^9 E. coli and ≈1×10^8 of the other bacterial strains into mouse thighs. […] To quantify the minimal number of bacteria required to generate signals upon imaging, mice were injected in the thigh with various amounts of S. aureus 25923. One hour later, the mice were killed, the muscles were harvested and homogenized, and the extracts spread on blood agar plates (Becton Dickinson) for colony counting.
(§5) Mice were injected with 225 μCi of [^125I]FIAU via the tail vein and imaged at various time points thereafter. Before imaging, mice were anesthetized via s.c. administration of acepromazine and ketamine. Each scan took min with a dedicated small-animal single-photon emission computed tomography (SPECT)/computed tomography (CT) camera (Gamma Medica X-SPECT, Northridge, Calif.) in planar acquisition mode using a low-energy high-resolution (LEHR) parallel-hole collimator. […]

WT E. coli = assay: In vivo imaging of WT E. coli thigh infection in mice; set-up: species or system Escherichia coli
Method: as §4, §3
[^125I]FIAU was synthesized by standard methods and injected i.v. into animals 6 h after intramuscular inoculations of bacteria into the thighs of mice. […] Signals from the infectious lesions could be seen as early as 2 h after injection of [^125I]FIAU and were optimal 16 h after injection.

S. aureus 25923 = assay: Minimal number of bacteria that could be imaged in mouse thigh; format: in vivo, Staphylococcus aureus; settings: 1 h after bacterial injection
Method: as §4
To determine the minimal number of bacteria that could be imaged with this approach, various numbers of S. aureus 25923 were injected into mouse thighs. One hour later, the thigh tissue was excised, homogenized, and spread on blood agar plates. The 1-h time point was chosen because this was the earliest time point at which injections of [^125I]FIAU consistently produced discernable scintigraphic images of infectious foci. As few as 2×10^6 colony-forming units per gram of muscle tissue produced discernable signals.

[4] = tested on: Streptococcus pneumoniae 49619; assay: In vivo imaging of S. pneumoniae thigh infection in mice; settings: mouse thigh infection
Method: as §4, §5

[5] = tested on: Staphylococcus aureus 29213 and 25923; assay: In vivo imaging of S. aureus thigh infection in mice; settings: mouse thigh infection
Method: as §4, §5

[6] = tested on: Enterococcus faecalis 49532; assay: In vivo imaging of E. faecalis thigh infection in mice; settings: mouse thigh infection
Method: as §4, §5

[7] = tested on: E. faecalis, S. aureus, S. epidermidis, and S. pneumoniae; assay: Time course of imaging of infections caused by pathogenic bacteria in mice; format: in vivo
Method: as §4, §3
Accordingly, this time point was chosen for detailed analyses. Biodistribution studies were performed in mice injected with 1×10^8 S. aureus 25923 into one thigh. Six hours later, the mice were injected with 2 μCi of [^125I]FIAU, and, after another 24 h, the mice were killed, their organs were harvested, and radioactivity was determined. […]

[8] = tested on: Staphylococcus epidermidis F362; assay: In vivo imaging of S. epidermidis thigh infection in mice; settings: mouse thigh infection
Method: as §4, §5

[9] = BALB/c mice, CT-26 tumors, tracer 24 h after C. novyi-NT i.v.

SMILES: O=c1[nH]c(=O)n([C@@H]2O[C@H](CO)[C@@H](O)[C@@H]2F)cc1I [FIAU, 1-(2′-deoxy-2′-fluoro-β-D-arabinofuranosyl)-5-iodouracil]
- Susceptibility of E. coli to nucleoside analog (growth inhibition) (Escherichia coli): quite sensitive
- log10 IC50 (M) (Escherichia coli; wild type E. coli, Lauria Broth, overnight, OD600): -10
- minimum inhibitory concentration 50 (MIC50) (C. novyi-NT [1]): ~20 µg/mL (≈ 53.8 µM)
- Susceptibility of TK gene-deleted E. coli derivative (TK deficient E. coli): highly resistant
- Growth inhibition of TK deficient E. coli (TK deficient E. coli; two-fold serial dilutions, overnight, OD600): not inhibited at any concentration

SMILES: Cc1cn([C@H]2C[C@H](N=[N+]=[N-])[C@@H](CO)O2)c(=O)[nH]c1=O [Zidovudine]
- Susceptibility of E. coli to nucleoside analog (growth inhibition) (Escherichia coli): quite sensitive
- Susceptibility of TK gene-deleted E. coli derivative (TK deficient E. coli): moderately resistant

SMILES: O=c1[nH]c(=O)n([C@@H]2O[C@H](CO)[C@@H](O)[C@@H]2F)cc1[125I] [[^125I]FIAU, 2′-fluoro-2′deoxy-1-beta-D-arabinofuranosyl-5-iodo-uracil]
- Earliest time at which tumors could be visualized after injection of tracer (C. novyi-NT [2]; [9]): 16 h
- Time of maximum uptake after injection (C. novyi-NT [2]; [9]): 24 to 48 h
- Uptake in tumors not treated with C. novyi-NT (C. novyi-NT [2]; CT-26 tumors, no C. novyi-NT): No uptake
- Imaging of tumor types responsive to bacteriolytic therapy (C. novyi-NT [2]; HCT116, HuCCTI or CT26 tumors, after C. novyi-NT spores): able to be imaged
- Uptake in thighs inoculated with TK- E. coli [3]: no discernable uptake
- Earliest time at which signals from infectious lesions could be seen after injection (WT E. coli; WT E. coli thigh infection): 2 h
- Time after injection at which signals were optimal (WT E. coli; WT E. coli thigh infection): 16 h
- Uptake within infected thighs (whole-body planar scintigram) (WT E. coli; tracer i.v. 6 h after i.m. inoculation): demonstrated the uptake
- Minimal number of bacteria producing discernable signals (S. aureus 25923): 2×10^6 colony-forming units per gram of muscle tissue
- Imaging of infectious foci due to S. pneumoniae [4]: readily imaged
- Imaging of infectious foci due to S. aureus [5]: readily imaged
- Imaging of infectious foci due to E. faecalis [6]: readily imaged
- Signal-to-noise ratio in infectious foci 24 h after administration ([7]; 24 h after administration): high signal-to-noise ratios
- Signal-to-noise ratio by 48 h after administration ([7]; 48 h after administration of the tracer): very high signal-to-noise ratios
- Earliest time at which robust signals could be observed after administration ([7]; mouse thigh infections, patient-derived strains): 4 h
- Imaging of infectious foci due to S. epidermidis [8]: readily imaged

SMILES: Nc1nc2c(ncn2CCC(CO)CO)c(=O)[nH]1 [penciclovir]
- Susceptibility of E. coli to nucleoside analog (growth inhibition) (Escherichia coli): resistant

SMILES: Nc1nc2c(ncn2COC(CO)CO)c(=O)[nH]1 [genciclovir]
- Susceptibility of E. coli to nucleoside analog (growth inhibition) (Escherichia coli): resistant
